Laboratory results published in patent publication US20070128217A1 (priority 2003, published 2007).

How the values were obtained:
[1] = test system: antibodies in sera from SARS patients (sera 1a, 1b, 2, 6, 37, 62, London, SARS-yellow, SARS-green); type: binding, human; parameters: Binding of serum 6 to linear peptides of protein X1 of SARS-CoV Urbani / Binding of serum 37 to linear peptides of protein X1 of SARS-CoV Urbani / Binding of serum 6 to looped/cyclic peptide (PEPSCAN-ELISA) / Binding of serum 37 to looped/cyclic peptide (PEPSCAN-ELISA) / Binding of serum 37 to looped/cyclic peptides of protein X1 of SARS-CoV Urbani / Binding of serum 6 to linear peptides of protein X2 / Binding of serum 37 to linear peptides of protein X2 / Binding of serum 37 to looped/cyclic peptides of protein X2 of SARS-CoV Urbani / Binding of serum 6 to linear peptides of protein M of SARS-CoV Urbani / Binding of serum 37 to linear peptides of protein M of SARS-CoV Urbani / Binding of serum 6 to looped/cyclic peptides of protein M of SARS-CoV Urbani / Binding of serum 37 to looped/cyclic peptides of protein M of SARS-CoV Urbani / Binding of serum 6 to linear peptides of protein X3 of SARS-CoV Urbani / Binding of serum 37 to linear peptides of protein X3 of SARS-CoV Urbani / Binding of serum 37 to looped/cyclic peptides of protein X3 of SARS-CoV Urbani / Binding of serum 6 to linear peptides of protein X4 of SARS-CoV Urbani / Binding of serum 37 to linear peptides of protein X4 of SARS-CoV Urbani / Binding of serum 37 to looped/cyclic peptides of protein X4 of SARS-CoV Urbani / Binding of serum 6 to linear peptides of protein X5 of SARS-CoV Urbani / Binding of serum 37 to linear peptides of protein X5 of SARS-CoV Urbani / Binding of serum 37 to looped/cyclic peptides of protein X5 of SARS-CoV Urbani / Binding of serum 6 to linear peptides of protein N of SARS-CoV Urbani / Binding of serum 37 to linear peptides of protein N of SARS-CoV Urbani / Binding of serum 6 to linear peptide (PEPSCAN-ELISA) / Binding of serum 1a to looped/cyclic peptides of protein N of SARS-CoV Urbani / Binding of serum 1b to looped/cyclic peptides of protein N of SARS-CoV Urbani / Binding of serum 2 to looped/cyclic peptides of protein N of SARS-CoV Urbani / Binding of serum 6 to looped/cyclic peptides of protein N of SARS-CoV Urbani / Binding of serum 37 to looped/cyclic peptides of protein N of SARS-CoV Urbani / Binding of serum 62 to looped/cyclic peptides of protein N of SARS-CoV Urbani / Binding of serum London to looped/cyclic peptides of protein N of SARS-CoV Urbani / Binding of serum SARS-green to looped/cyclic peptides of protein N of SARS-CoV Urbani: unit not given here
[2] = test system: control sera (pooled serum of ten healthy LUMC hospital workers; commercial negative donor pooled serum from the Dutch bloodbank); type: binding, human; parameters: Binding of Control serum LUMC to linear peptides / Binding of Control serum Blood-bank to linear peptides / Binding of Control serum LUMC to looped peptides / Binding of Control Serum Blood-Bank to Looped peptides / Binding of Control serum LUMC to linear peptides of the protein M of SARS-CoV Urbani / Binding of Control serum Blood-bank to linear peptides of the protein M of SARS-CoV Urbani / Binding of Control serum LUMC to looped peptides of the protein M of SARS-CoV Urbani / Binding of Control Serum Blood-Bank to Looped peptides of the protein M of SARS-CoV Urbani: unit not given here
[3] = test system: rabbit serum obtained by immunizing a rabbit with the SARS-CoV strain Frankfurt 1; type: binding; parameters: Binding of a rabbit serum to linear peptides / Binding of a rabbit serum to looped peptides / Rabbit serum linear peptides / Rabbit serum looped peptides / Binding of a rabbit serum to linear peptides of protein N of SARS-CoV Urbani (Rabbit serum linear peptides) / Binding of a rabbit serum to looped/cyclic peptides of protein N of SARS-CoV Urbani (Rabbit serum looped peptides): unit not given here
[4] = test system: recombinant human anti-SARS-CoV antibody 03-018; type: binding; parameters: Binding of antibody 03-018 to linear peptides of the N protein of SARS-CoV Urbani / Binding of antibody 03-018 to looped/cyclic peptides of the N protein of SARS-CoV Urbani: unit not given here

Row | Sequence | Binding of serum 1a to linear peptides of protein N of SARS-CoV Urbani [1] | Binding of serum 1a to looped/cyclic peptides of protein N of SARS-CoV Urbani [1] | Binding of serum 1b to linear peptides of protein N of SARS-CoV Urbani [1] | Binding of serum 1b to looped/cyclic peptides of protein N of SARS-CoV Urbani [1] | Binding of serum 2 to linear peptides of protein N of SARS-CoV Urbani [1] | Binding of serum 2 to looped/cyclic peptides of protein N of SARS-CoV Urbani [1] | Binding of serum 6 to linear peptides of protein N of SARS-CoV Urbani [1] | Binding of serum 6 to looped/cyclic peptides of protein N of SARS-CoV Urbani [1] | Binding of serum 37 to linear peptides of protein N of SARS-CoV Urbani [1] | Binding of serum 37 to looped/cyclic peptides of protein N of SARS-CoV Urbani [1] | Binding of serum 62 to linear peptides of protein N of SARS-CoV Urbani [1] | Binding of serum 62 to looped/cyclic peptides of protein N of SARS-CoV Urbani [1] | Binding of serum London to linear peptides of protein N of SARS-CoV Urbani [1] | Binding of serum London to looped/cyclic peptides of protein N of SARS-CoV Urbani [1] | Binding of serum SARS-green to linear peptides of protein N of SARS-CoV Urbani [1] | Binding of serum SARS-green to looped/cyclic peptides of protein N of SARS-CoV Urbani [1] | Binding of serum SARS-yellow to linear peptides of protein N of SARS-CoV Urbani [1] | Binding of serum SARS-yellow to looped/cyclic peptides of protein N of SARS-CoV Urbani [1] | Binding of a rabbit serum to linear peptides of protein N of SARS-CoV Urbani (Rabbit serum linear peptides) [3] | Binding of a rabbit serum to looped/cyclic peptides of protein N of SARS-CoV Urbani (Rabbit serum looped peptides) [3] | further results
1 | TPKDHIGTRNPNNNA | 0.3 | 0.3 | 0.1 | 0.3 | 0.3 | 0.3 | 0.2 | 0.2 | 0.9 | 0.5 | 0.8 | 0.3 | 0.5 | 0.3 | 0.4 | 0.3 | 0.7 | 0.3 | 0.1 | 0.4 | Binding of Control Serum Blood-Bank to Looped peptides [2]: 0.5; Binding of Control serum Blood-bank to linear peptides [2]: 0.9; Binding of Control serum LUMC to linear peptides [2]: 0.9; Binding of Control serum LUMC to looped peptides [2]: 0.6; Binding of antibody 03-018 to linear peptides of the N protein of SARS-CoV Urbani [4]: 0.1; Binding of antibody 03-018 to looped/cyclic peptides of the N protein of SARS-CoV Urbani [4]: 0.2
2 | TPSGTWLTYHGAIKL | 0.2 | 0.4 | 0.1 | 0.2 | 0.2 | 0.4 | 0.2 | 0.2 | 0.7 | 0.8 | 0.6 | 0.8 | 0.7 | 0.5 | 0.3 | 0.3 | 0.5 | 0.4 | 0.1 | 0.4 | Control Serum Blood-Bank Looped peptides [2]: 0.7; Control serum Blood-bank linear peptides [2]: 0.8; Control serum LUMC linear peptides [2]: 0.6; Control serum LUMC looped peptides [2]: 0.5; Binding of antibody 03-018 to linear peptides of the N protein of SARS-CoV Urbani [4]: 0.1; Binding of antibody 03-018 to looped/cyclic peptides of the N protein of SARS-CoV Urbani [4]: 0.2
3 | TYHGAIKLDDKDPQF | 0.3 | 0.2 | 0.1 | 0.1 | 0.1 | 0.2 | 0.2 | 0.1 | 0.8 | 0.3 | 1.1 | 0.2 | 0.6 | 0.3 | 0.4 | 0.0 | 0.7 | 0.2 | 0.1 | 0.2 | Control Serum Blood-Bank Looped peptides [2]: 0.4; Control serum Blood-bank linear peptides [2]: 0.8; Control serum LUMC linear peptides [2]: 0.7; Control serum LUMC looped peptides [2]: 0.4; Binding of antibody 03-018 to linear peptides of the N protein of SARS-CoV Urbani [4]: 0.1; Binding of antibody 03-018 to looped/cyclic peptides of the N protein of SARS-CoV Urbani [4]: 0.1
